Assay: Binding affinity to beta cyclodextrin

SMILES	log Ks
CCc1ccc(O)cc1	2.69
Oc1cccc(I)c1	2.93
CC(=O)Oc1cccc(C#N)c1	1.49
CCCCc1ccc(O)cc1	3.97
CCCCCc1ccc(O)cc1	4.19
CC=O	-0.64
CNc1ccccc1	2.12
Oc1cccc(Br)c1	2.51
Brc1ccc(Br)cc1	2.97
CCC(C)(C)c1ccc(O)cc1	4.7
CC(C)(C)c1cccc(O)c1	4.41
C#Cc1ccccc1	2.36
CCC(C)c1ccc(O)cc1 (stereo not given)	4.18
CC(C)c1ccc(O)cc1	3.58
Oc1cc(Cl)cc(Cl)c1	2.07
CCCc1ccc(O)cc1	3.55
CN(C)c1ccccc1	2.36
CC(=O)c1cccc(O)c1	2.06
COc1ccc(OC(C)=O)cc1	2.45
Oc1cccc(Cl)c1	2.28
CCCc1cccc(OC(C)=O)c1	3.28
CC(C)C(C)O (stereo not given)	1.92
CC(C)Cc1cccc(O)c1	4.21
O=C(O)CC12CC3CC(CC(C3)C1)C2	4.32
CCCCCc1ccc(OC(C)=O)cc1	3.8

SMILES	log Ks
CCCCc1ccc(OC(C)=O)cc1	3.62
CC(=O)Oc1cccc(C)c1	2.21
CC(C)CC(C)O (stereo not given)	2.04
CC(C)c1cccc(O)c1	3.44
CC(=O)Oc1ccc(Cl)cc1	2.5
Oc1cc(Br)cc(Br)c1	2.56
CCCC(C)(C)O	1.99
Cc1ccc(/C=C/C(=O)O)cc1	2.65
CCOc1ccc(OC(C)=O)cc1	2.54
CCC(C)CO (stereo not given)	2.08
CC(=O)Oc1ccc(F)cc1	2.11
CC(=O)Oc1cccc(C(C)C)c1	3.36
Ic1ccc(I)cc1	3.17
CCNc1ccccc1	2.34
CC(=O)Oc1cccc(F)c1	1.91
CC(=O)Oc1cccc(Cl)c1	2.44
CC(=O)Oc1ccc(Br)cc1	2.68
CC(=O)Oc1cccc(Br)c1	2.67
CCC(=O)c1cccc(O)c1	2.61
O=C(O)CC1CC2CCC1C2 (stereo not given)	3.59
CC(C)Oc1ccc(O)cc1	2.86
Cc1cccc(/C=C/C(=O)O)c1	2.93
CC(=O)Oc1cccc(I)c1	3.07
CCCc1ccc(OC(C)=O)cc1	3.15
CC(C)(C)CO	2.71

SMILES	log Ks
CCOc1cccc(OC(C)=O)c1	2.49
COc1cc(O)cc(OC)c1	2.34
OC[C@H](O)COCc1ccccc1	2.11
CCCCc1cccc(O)c1	3.76
CCC(C)c1cccc(O)c1 (stereo not given)	4.06
CCCc1cccc(O)c1	3.28
CC(=O)Oc1cccc(CC(C)C)c1	3.83
CC(=O)Oc1ccc(C(C)C)cc1	2.88
c1ccc2c(c1)Sc1ccccc1S2	3.57
CCc1cccc(OC(C)=O)c1	2.68
CC(=O)Oc1ccc(C)cc1	2.49
CC(=O)Oc1ccc(C(C)(C)C)cc1	3.85
CC(=O)Oc1ccc(I)cc1	3
CCC(C)(O)CC	2.15
CCCCc1cccc(OC(C)=O)c1	3.66
CCc1ccc(OC(C)=O)cc1	2.83
CCCCCCC(C)O (stereo not given)	3.13
Oc1ccc(F)cc1	1.73
Oc1ccc(I)cc1	2.98
O=[N+]([O-])c1ccc(Cl)cc1	2.15
Oc1cccc(F)c1	1.7
CCc1cccc(O)c1	2.6
CCCCn1ccnc1	2.19
O=C(O)/C=C/c1cccc(O)c1	2.56
OCCCO [1,3-PROPANEDIOL]	0.67

SMILES	log Ks
OCCCCO [1,4-BUTANEDIOL]	0.64
OCCCCCO [1,5-PENTANEDIOL]	1.22
OCCCCCCO [1,6-HEXANEDIOL]	1.69
CCCCCCCO [1-HEPTANOL]	2.85
CCCCCO [1-PENTANOL]	1.8
CCOc1cccc(O)c1 [1-hydroxy-3-ethoxybenzene]	2.35
COc1cccc(O)c1 [1-hydroxy-3-methoxybenzene]	2.11
CCOc1ccc(O)cc1 [1-hydroxy-4-ethoxybenzene]	2.33
CCCCC(C)O (stereo not given) [2-HEXANOL]	1.98
COCCO [2-METHOXYETHANOL]	0.22
CCCC(C)O (stereo not given) [2-PENTANOL]	1.49
CC(C)CCO [3-METHYLBUTANOL]	2.25
CCC(O)CC [3-PENTANOL]	1.35
CC(=O)c1ccc(O)cc1 [4-HYDROXYACETOPHENONE]	2.18
O=Cc1ccc(O)cc1 [4-HYDROXYBENZALDEHYDE]	1.75
Nc1ccc([N+](=O)[O-])cc1 [4-NITROANILINE]	2.48
O=C(O)c1ccc([N+](=O)[O-])cc1 [4-NITROBENZOIC ACID]	2.34
CC(=O)Oc1ccc([N+](=O)[O-])cc1 [4-NITROPHENYL ACETATE]	2.13
ClCc1ccccc1 [(CHLOROMETHYL)BENZENE]	2.45
CC(=O)Nc1ccccc1 [ACETANILIDE]	2.2
CC(=O)c1ccc(S(=O)(=O)NC(=O)NC2CCCCC2)cc1 [ACETOHEXAMIDE]	2.94
CC(C)=O [ACETONE]	0.42
CC#N [ACETONITRILE]	-0.27
CC(=O)c1ccccc1 [ACETOPHENONE]	2.27
c1ccc2nc3ccccc3cc2c1 [ACRIDINE]	2.33

SMILES	log Ks
C=CCC1(CC=C)C(=O)NC(=O)NC1=O [ALLOBARBITAL]	1.98
CCC1(CCC(C)C)C(=O)NC(=O)NC1=O [AMOBARBITAL]	3.07
CCC(C)(C)O [AMYLENE HYDRATE]	1.91
Nc1ccccc1 [ANILINE]	1.6
COc1ccccc1 [ANISOLE]	2.32
CCC1(CC)C(=O)NC(=O)NC1=O [BARBITAL]	1.78
NS(=O)(=O)c1cc2c(cc1C(F)(F)F)NC(Cc1ccccc1)NS2(=O)=O (stereo not given) [BENDROFLUMETHIAZIDE]	1.9
O=Cc1ccccc1 [BENZALDEHYDE]	1.78
c1ccccc1 [BENZENE]	2.23
Nc1ccc(-c2ccc(N)cc2)cc1 [BENZIDINE]	3.35
CCOC(=O)c1ccc(N)cc1 [BENZOCAINE]	2.69
O=C(O)c1ccccc1 [BENZOIC ACID]	2.12
N#Cc1ccccc1 [BENZONITRILE]	2.23
c1ccc2sccc2c1 [BENZOTHIOPHENE]	3.23
c1ccc2scnc2c1 [BENZO[D]THIAZOLE]	2.38
OCc1ccccc1 [BENZYL ALCOHOL]	1.71
c1ccc(Cn2ccnc2)cc1 [BENZYLIMIDAZOLE]	2.61
C[C@H]1C[C@H]2[C@@H]3CCC4=CC(=O)C=C[C@]4(C)[C@@]3(F)[C@@H](O)C[C@]2(C)[C@@]1(O)C(=O)CO [BETAMETHASONE]	3.73
Brc1ccccc1 [BROMOBENZENE]	2.5
CCCCOC(=O)c1ccc(N)cc1 [BUTAMBEN]	3.19
CCC(C)O (stereo not given) [BUTANOL]	1.19
CCCCOC(=O)c1ccc(O)cc1 [BUTYLPARABEN]	3.39
c1ccc2c(c1)[nH]c1ccccc12 [CARBAZOLE]	2.44
ClC(Cl)(Cl)Cl [CARBON TETRACHLORIDE]	2.2
CCCCNC(=O)NS(=O)(=O)c1ccc(N)cc1 [CARBUTAMIDE]	2.29

SMILES	log Ks
C[C@H](CCC(=O)O)[C@H]1CC[C@H]2[C@@H]3[C@H](O)C[C@@H]4C[C@H](O)CC[C@]4(C)[C@H]3CC[C@]12C [CHENODIOL]	4.36
ClC(Cl)Cl [CHLOROFORM]	1.43
C[C@H](CCC(=O)O)[C@H]1CC[C@H]2[C@@H]3[C@H](O)C[C@@H]4C[C@H](O)CC[C@]4(C)[C@H]3C[C@H](O)[C@]12C [CHOLIC ACID]	3.5
C(=C\c1ccccc1)/CN1CCN(C(c2ccccc2)c2ccccc2)CC1 [CINNARIZINE]	3.64
C[C@]12C[C@H](O)[C@H]3[C@@H](CCC4=CC(=O)CC[C@@]43C)[C@@H]1CC[C@@H]2C(=O)CO [CORTICOSTERONE]	3.85
CC(=O)OCC(=O)[C@@]1(O)CC[C@H]2[C@@H]3CCC4=CC(=O)CC[C@]4(C)[C@H]3C(=O)C[C@@]21C [CORTISONE ACETATE]	3.62
C[C@]12CCC(=O)C=C1CC[C@@H]1[C@@H]2C(=O)C[C@@]2(C)[C@H]1CC[C@]2(O)C(=O)CO [CORTISONE]	3.35
O=C(O)/C=C/c1ccc(O)cc1 [COUMARIC ACID]	2.83
CCC1(C2=CCCCC2)C(=O)NC(=O)NC1=O [CYCLOBARBITAL]	2.71
OC1CCC1 [CYCLOBUTANOL]	1.18
OC1CCCCCC1 [CYCLOHEPTANOL]	3.23
OC1CCCCC1 [CYCLOHEXANOL]	2.67
OC1CCCCCCC1 [CYCLOOCTANOL]	3.3
OC1CCCC1 [CYCLOPENTANOL]	2.08
C[C@H](CCC(=O)O)[C@H]1CC[C@H]2[C@@H]3C(=O)C[C@@H]4CC(=O)CC[C@]4(C)[C@H]3CC(=O)[C@]12C [DEHYDROCHOLIC ACID]	3.38
C[C@@H]1C[C@H]2[C@@H]3CCC4=CC(=O)C=C[C@]4(C)[C@@]3(F)[C@@H](O)C[C@]2(C)[C@@]1(O)C(=O)CO [DEXAMETHASONE]	3.65
c1ccc2c(c1)oc1ccccc12 [DIBENZOFURAN]	2.97
c1ccc2c(c1)sc1ccccc12 [DIBENZOTHIOPHENE]	3.48
CCNCC [DIETHYLAMINE]	1.36
CCCCC[C@H](O)/C=C/[C@H]1[C@H](O)CC(=O)[C@@H]1C/C=C\CCCC(=O)O [DINOPROSTONE]	3.09

— ChEMBL document CHEMBL1140846, “Convenient QSAR model for predicting the complexation of structurally diverse compounds with beta-cyclodextrins” (Bioorg Med Chem, 2009)
